Assay results: patent US20200270233A1, “DHFR INHIBITORS, COMPOSITIONS, AND METHODS RELATED THERETO” (Vyera Pharmaceuticais LLC, priority 2017, published 2020)
Read-outs that look alike come from different tables or passages of the source.

Legend:
T. cruzi DHFR (tcDHFR) = T. cruzi DHFR (tcDHFR) (Trypanosoma cruzi, UniProt Q27793); assay: biochemical; details: for Average DHFR selectivity (h/tc): hDHFR IC50/tcDHFR IC50
hDHFR = biological target: T1, hDHFR (Homo sapiens, UniProt P00374); format: biochemical
T1 sequence (P00374 1-187): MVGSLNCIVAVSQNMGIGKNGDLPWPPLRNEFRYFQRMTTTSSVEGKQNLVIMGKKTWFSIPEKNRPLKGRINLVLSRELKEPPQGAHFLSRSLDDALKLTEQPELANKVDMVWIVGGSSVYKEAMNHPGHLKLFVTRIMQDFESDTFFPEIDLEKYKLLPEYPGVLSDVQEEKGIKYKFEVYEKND

T. gondii DHFR (tgDHFR) = biological target: T2, T. gondii DHFR (tgDHFR) (Toxoplasma gondii, UniProt Q07422); assay: biochemical; details: Table 16; for Average DHFR selectivity (h/tg): hDHFR IC50/tgDHFR IC50; for IC50: pIC50 = -log10 IC50, at least three replicates, read-out: tgDHFR pIC50-DHFR primary assay (converted)
T2 sequence (Q07422 1-610): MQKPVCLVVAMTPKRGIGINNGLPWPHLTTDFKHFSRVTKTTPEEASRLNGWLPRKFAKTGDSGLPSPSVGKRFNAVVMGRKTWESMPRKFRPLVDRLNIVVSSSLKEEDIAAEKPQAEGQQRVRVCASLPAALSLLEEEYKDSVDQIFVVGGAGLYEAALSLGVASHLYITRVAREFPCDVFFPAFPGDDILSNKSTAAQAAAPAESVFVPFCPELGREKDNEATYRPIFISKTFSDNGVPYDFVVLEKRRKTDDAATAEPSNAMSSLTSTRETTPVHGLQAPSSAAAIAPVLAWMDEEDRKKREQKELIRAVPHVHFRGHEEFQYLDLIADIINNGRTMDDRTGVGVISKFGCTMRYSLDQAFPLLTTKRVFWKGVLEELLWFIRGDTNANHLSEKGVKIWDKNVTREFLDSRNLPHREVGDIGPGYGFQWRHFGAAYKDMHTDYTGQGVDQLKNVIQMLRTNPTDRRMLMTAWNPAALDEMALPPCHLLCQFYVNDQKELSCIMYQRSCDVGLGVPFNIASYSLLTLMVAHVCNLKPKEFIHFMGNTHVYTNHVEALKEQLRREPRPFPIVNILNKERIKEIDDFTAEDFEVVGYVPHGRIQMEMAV

[1] = Table 17, pIC50 = -log10 IC50, at least three replicates, read-out: hDHFR pIC50-DHFR primary assay (converted)
[2] = Table 17, pIC50 = -log10 IC50, at least three replicates, read-out: tcDHFR pIC50-DHFR primary assay (converted)
[3] = Table 16, pIC50 = -log10 IC50, at least three replicates, read-out: hDHFR pIC50-DHFR primary assay (converted)

Sequence of T. cruzi DHFR (tcDHFR) (Q27793 whole entry): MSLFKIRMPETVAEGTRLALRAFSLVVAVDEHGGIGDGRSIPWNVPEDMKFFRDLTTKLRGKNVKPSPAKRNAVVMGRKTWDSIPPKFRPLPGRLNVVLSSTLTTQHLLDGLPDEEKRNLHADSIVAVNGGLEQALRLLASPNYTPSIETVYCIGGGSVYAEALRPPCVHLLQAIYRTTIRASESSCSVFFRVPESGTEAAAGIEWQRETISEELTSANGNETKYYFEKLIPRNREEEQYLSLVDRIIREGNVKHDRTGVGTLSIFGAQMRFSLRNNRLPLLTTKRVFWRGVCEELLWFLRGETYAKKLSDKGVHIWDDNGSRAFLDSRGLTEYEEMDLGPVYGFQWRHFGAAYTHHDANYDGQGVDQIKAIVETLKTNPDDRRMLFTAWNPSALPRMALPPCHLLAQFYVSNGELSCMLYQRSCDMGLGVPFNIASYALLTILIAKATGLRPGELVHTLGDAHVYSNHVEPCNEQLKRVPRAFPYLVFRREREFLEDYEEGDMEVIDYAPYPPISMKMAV

Compound | IC50 (hDHFR; [1]) [nM] | Average DHFR selectivity (h/tc) (T. cruzi DHFR (tcDHFR); Table 17) | IC50 (T. cruzi DHFR (tcDHFR); [2]) [nM] | also measured
Cc1ccc(N2CCN(c3cnc(N)nc3N)CC2)cc1 [Compound 8, 5-(4-(p-tolyl)piperazin-1-yl)pyrimidine-2,4-diamine] |  |  |  | IC50 (T. cruzi DHFR (tcDHFR)): 18.2 nM
COc1cccc(N2CCN(c3cnc(N)nc3N)CC2)c1 [Compound 9, 5-(4-(3-methoxyphenyl)piperazin-1-yl)pyrimidine-2,4-diamine] |  |  |  | IC50 (T. cruzi DHFR (tcDHFR)): 28.8 nM
Nc1ncc(N2CCN(c3cccc(-c4ccncn4)c3)CC2)c(N)n1 [Compound 102, 5-(4-(3-(pyrimidin-4-yl)phenyl)piperazin-1-yl)pyrimidine-2,4-diamine] | 1660 |  |  | IC50 (T. cruzi DHFR (tcDHFR)): 15.8 nM
Nc1ncc(N2CCN(c3ccc(C(F)(F)F)nc3)CC2)c(N)n1 [Compound 112] | 2040 |  |  | IC50 (T. cruzi DHFR (tcDHFR)): 5.62 nM
COc1ccc(N2CCN(c3cnc(N)nc3N)CC2)cc1 [Compound 114, 5-(4-(4-methoxyphenyl)piperazin-1-yl)pyrimidine-2,4-diamine] | 813 |  |  | IC50 (T. cruzi DHFR (tcDHFR)): 5.62 nM
Nc1ncc(N2CCN(c3ccc(C(F)(F)F)cc3)CC2)c(N)n1 [Compound 115, 5-(4-(4-(trifluoromethyl)phenyl)piperazin-1-yl)pyrimidine-2,4-diamine] |  |  |  | IC50 (T. cruzi DHFR (tcDHFR)): 6.17 nM; IC50 (hDHFR): 813 nM
Nc1ncc(N2CCN(c3ccc(F)cc3)CC2)c(N)n1 [Compound 116, 5-(4-(4-fluorophenyl)piperazin-1-yl)pyrimidine-2,4-diamine] | 5010 |  |  | IC50 (T. cruzi DHFR (tcDHFR)): 50.1 nM
Nc1ncc(N2CCN(c3ccc(C(F)(F)F)cn3)CC2)c(N)n1 [Compound 140, 5-(4-(5-(trifluoromethyl)pyridin-2-yl)piperazin-1-yl)pyrimidine-2,4-diamine] | 617 | 90.29 | 7 | 
Nc1ncc(N2CCN(c3ccc(Cl)nc3)CC2)c(N)n1 [Compound 141, 5-(4-(6-chloropyridin-3-yl)piperazin-1-yl)pyrimidine-2,4-diamine] | 417 | 67.2 | 6.31 | 
Nc1ncc(N2CCN(c3cncc(Br)c3)CC2)c(N)n1 [Compound 145, 5-(4-(5-bromopyridin-3-yl)piperazin-1-yl)pyrimidine-2,4-diamine] | 1170 | 56.7 | 21.6 | 
Cc1ccc(N2CCN(c3cnc(N)nc3N)CC2)cn1 [Compound 146, 5-(4-(6-methylpyridin-3-yl)piperazin-1-yl)pyrimidine-2,4-diamine] | 7410 | 222.395 | 33.5 | 
Nc1ncc(N2CCN(c3cc(Cl)ccn3)CC2)c(N)n1 [Compound 148, 5-(4-(4-chloropyridin-2-yl)piperazin-1-yl)pyrimidine-2,4-diamine] | 2190 | 94.81 | 22.9 | 
COc1ncc(-c2ccnc(N3CCN(c4cnc(N)nc4N)CC3)c2)cn1 [Compound 165] |  |  |  | Average DHFR selectivity (h/tg) (T. gondii DHFR (tgDHFR)): 82.03; IC50 (T. gondii DHFR (tgDHFR)): 4.37 nM; IC50 (hDHFR; [3]): 355 nM
C[C@H]1CN(c2cnc(N)nc2N)CCN1c1cccc(C2CCOCC2)c1 [Compound 174] |  |  |  | Average DHFR selectivity (h/tg) (T. gondii DHFR (tgDHFR)): 30.69; IC50 (T. gondii DHFR (tgDHFR)): 31.6 nM; IC50 (hDHFR; [3]): 955 nM
C[C@@H]1CN(c2cnc(N)nc2N)CCN1c1cccc(C2CCOCC2)c1 [Compound 176] |  |  |  | Average DHFR selectivity (h/tg) (T. gondii DHFR (tgDHFR)): 47.03; IC50 (T. gondii DHFR (tgDHFR)): 2.29 nM; IC50 (hDHFR; [3]): 107 nM
Nc1ncc(N2CCN(c3cccc(-c4cnc(O)nc4)n3)CC2)c(N)n1 [Compound 181, 5-(6-(4-(2,4-diaminopyrimidin-5-yl)piperazin-1-yl)pyridin-2-yl)pyrimidin-2-ol] |  |  |  | Average DHFR selectivity (h/tg) (T. gondii DHFR (tgDHFR)): 13.94; IC50 (T. gondii DHFR (tgDHFR)): 1.2 nM; IC50 (hDHFR; [3]): 16.6 nM
COc1ncc(-c2cccc(N3CC=C(c4cnc(N)nc4N)CC3)c2)cn1 [Compound 182, 5-(1-(3-(2-methoxypyrimidin-5-yl)phenyl)-1,2,3,6-tetrahydropyridin-4-yl)pyrimidine-2,4-diamine] |  |  |  | Average DHFR selectivity (h/tg) (T. gondii DHFR (tgDHFR)): 37.84; IC50 (T. gondii DHFR (tgDHFR)): 2.04 nM; IC50 (hDHFR; [3]): 77.6 nM
C[C@H]1CN(c2cnc(N)nc2N)CCN1c1cccc(C2=CCOCC2)c1 [Compound 192, (S)-5-(4-(3-(3,6-dihydro-2H-pyran-4-yl)phenyI)-3-methylpiperazin-1-yl)pyrimidine-2,4-diamine] |  |  |  | Average DHFR selectivity (h/tg) (T. gondii DHFR (tgDHFR)): 17.89; IC50 (T. gondii DHFR (tgDHFR)): 27.5 nM; IC50 (hDHFR; [3]): 479 nM
C[C@@H]1CN(c2cnc(N)nc2N)CCN1c1cccc(C2=CCOCC2)c1 [Compound 194, (R)-5-(4-(3-(3,6-dihydro-2H-pyran-4-yl)phenyl)-3-methylpiperazin-1-yl)pyrimidine-2,4-diamine] |  |  |  | Average DHFR selectivity (h/tg) (T. gondii DHFR (tgDHFR)): 18.10; IC50 (T. gondii DHFR (tgDHFR)): 1.82 nM; IC50 (hDHFR; [3]): 33.1 nM
CN(Cc1cnc2nc(N)nc(N)c2n1)c1ccc(C(=O)N[C@@H](CCC(=O)O)C(=O)O)cc1 [Methotrexate] |  |  |  | IC50 (T. cruzi DHFR (tcDHFR)): 1.1 nM
CCc1nc(N)nc(N)c1-c1ccc(Cl)cc1 [pyrimethamine, reference compound] |  |  |  | IC50 (T. cruzi DHFR (tcDHFR)): 1000 nM

Further lines, with some results ahead:

IC50 (hDHFR; [1]) [nM] | Average DHFR selectivity (h/tc) (T. cruzi DHFR (tcDHFR); Table 17) | IC50 (T. cruzi DHFR (tcDHFR); [2]) [nM] | Compound | also measured
47.9 | 8.02 | 6.24 | Nc1ncc(N2CCN(c3ccnc(C(F)(F)F)c3)CC2)c(N)n1 [Compound 139, 5-(4-(2-(trifluoromethyl)pyridin-4-yl)piperazin-1-yl)pyrimidine-2,4-diamine] | Average DHFR selectivity (h/tg) (T. gondii DHFR (tgDHFR)): 2.03; IC50 (T. gondii DHFR (tgDHFR)): 39.8 nM; IC50 (hDHFR; [3]): 81.3 nM
7630 | 206.5 | 38.5 | Nc1ncc(N2CCN(c3cnc(C(F)(F)F)nc3)CC2)c(N)n1 [Compound 142, 5-(4-(2-(trifluoromethyl)pyrimidin-5-yl)piperazin-1-yl)pyrimidine-2,4-diamine] | 
684 | 41.735 | 16.6 | Nc1ncc(N2CCN(c3ccc(F)c(Cl)c3)CC2)c(N)n1 [Compound 143, 5-(4-(3-chloro-4-fluorophenyl)piperazin-1-yl)pyrimidine-2,4-diamine] | 
8610 | 52.69 | 170 | Nc1ncc(N2CCN(c3cc(Cl)ccc3F)CC2)c(N)n1 [Compound 144, 5-(4-(5-chloro-2-fluorophenyl)piperazin-1-yl)pyrimidine-2,4-diamine] | 
180 | 24.92 | 7.41 | Nc1ncc(N2CCN(c3ccnc(Cl)c3)CC2)c(N)n1 [Compound 147, 5-(4-(2-chloropyridin-4-yl)piperazin-1-yl)pyrimidine-2,4-diamine] | 
1970 | 122.69 | 16.2 | Nc1ncc(N2CCN(c3ccc(Cl)cn3)CC2)c(N)n1 [Compound 149, 5-(4-(5-chloropyridin-2-yl)piperazin-1-yl)pyrimidine-2,4-diamine] | 
653 | 59.955 | 10.8 | Nc1ncc(N2CCN(c3cccc(Cl)n3)CC2)c(N)n1 [Compound 150, 5-(4-(6-chloropyridin-2-yl)piperazin-1-yl)pyrimidine-2,4-diamine] | 
851 | 31.54 | 27.2 | Nc1ncc(N2CCN(c3cccc(OC4CCOCC4)c3)CC2)c(N)n1 [Compound 151, 5-(4-(3-((tetrahydro-2H-pyran-4-yl)oxy)phenyl)piperazin-1-yl)pyrimidine-2,4-diamine] | Average DHFR selectivity (h/tg) (T. gondii DHFR (tgDHFR)): 50.16; IC50 (T. gondii DHFR (tgDHFR)): 17 nM; IC50 (hDHFR; [3]): 851 nM
3720 | 60.75 | 61.7 | Nc1ncc(N2CCN(c3ccc(F)nc3)CC2)c(N)n1 [Compound 156, 5-(4-(6-fluoropyridin-3-yl)piperazin-1-yl)pyrimidine-2,4-diamine] | 
484 | 17.495 | 28.8 | Nc1ncc(N2CCN(c3cccc(C4CCCOC4)c3)CC2)c(N)n1 (centres unmarked) [Compound 179] | 
2690 | 209.762 | 14 | COc1ccc(N2CCN(c3cnc(N)nc3N)CC2)cn1 [Compound 188, 5-(4-(6-methoxypyridin-3-yl)piperazin-1-yl)pyrimidine-2,4-diamine] | 
68.4 | 25.16 | 2.82 | Nc1ncc(N2CCN(c3ccc(C4=CCOCC4)cc3)CC2)c(N)n1 [Compound 191, 5-(4-(4-(3,6-dihydro-2H-pyran-4-yl)phenyl)piperazin-1-yl)pyrimidine-2,4-diamine] | 
